The source of these data is US20230321123A1, “INHIBITORS OF PSEUDOMONAS AERUGINOSA VIRULENCE FACTOR LasB” (Helmholtz-Zentrum Für Infektionsforschung GmbH, priority 2020, published 2023).

One data set can be described thus: Cytotoxicity HEK293. The class given is cell-based. Particulars: human; HEK293. The method, then: (§1) The compounds of examples 1 and 5 were not toxic against the cell lines HepG2, HEK293 and A549 (Table 5). Additionally, the inhibitory effect against P. aeruginosa PA14 was evaluated to exclude an antibacterial effect of the compounds of the present invention. This is important as it was the aim to target virulence and not viability of the bacteria. […]

The target in another data set is CYP2C19 (Homo sapiens, UniProt P33261). Put plainly: CYP inhibition CYP2C19. In kind it is in vitro ADME. The text has this: (§2) As the compound of example 2 has shown an impressive activity in the in vitro LasB inhibition assay, high selectivity over a broad spectrum of human enzymes and no signs of cytotoxicity in vitro, it has been subjected to a more advanced safety screening (Table 9).
Chain of CYP2C19 (P33261 whole entry): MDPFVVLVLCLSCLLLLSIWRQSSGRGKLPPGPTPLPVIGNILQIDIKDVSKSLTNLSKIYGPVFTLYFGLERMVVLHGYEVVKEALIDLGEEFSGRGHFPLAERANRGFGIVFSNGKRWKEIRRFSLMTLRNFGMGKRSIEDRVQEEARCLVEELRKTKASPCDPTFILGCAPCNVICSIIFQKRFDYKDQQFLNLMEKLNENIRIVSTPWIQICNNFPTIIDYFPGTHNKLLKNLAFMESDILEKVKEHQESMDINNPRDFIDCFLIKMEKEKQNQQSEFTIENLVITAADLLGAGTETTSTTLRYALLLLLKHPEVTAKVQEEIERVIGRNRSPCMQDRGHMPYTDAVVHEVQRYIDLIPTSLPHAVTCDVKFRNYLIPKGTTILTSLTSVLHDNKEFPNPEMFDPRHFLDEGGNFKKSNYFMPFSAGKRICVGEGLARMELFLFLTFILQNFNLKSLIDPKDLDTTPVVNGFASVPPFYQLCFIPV

For another data set, the target named is LasB (Pseudomonas aeruginosa, UniProt Q02RJ6). The experiment in a line: biochemical. Also noted: species or system P. aeruginosa. Particulars: IC50 against LasB.
Chain of LasB (Q02RJ6 198-498): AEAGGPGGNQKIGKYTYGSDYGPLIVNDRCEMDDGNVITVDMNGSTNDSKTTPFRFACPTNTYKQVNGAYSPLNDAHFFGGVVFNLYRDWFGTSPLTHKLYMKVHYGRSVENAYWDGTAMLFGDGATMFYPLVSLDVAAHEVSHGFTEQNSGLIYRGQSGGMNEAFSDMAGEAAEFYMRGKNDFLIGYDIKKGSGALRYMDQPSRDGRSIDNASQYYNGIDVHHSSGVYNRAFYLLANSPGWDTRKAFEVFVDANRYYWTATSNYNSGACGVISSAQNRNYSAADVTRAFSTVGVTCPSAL
A further data set deals with CYP3A4 (Homo sapiens, UniProt P08684). Put plainly: CYP inhibition CYP3A4. The class given is in vitro ADME.
Chain of CYP3A4 (P08684 whole entry): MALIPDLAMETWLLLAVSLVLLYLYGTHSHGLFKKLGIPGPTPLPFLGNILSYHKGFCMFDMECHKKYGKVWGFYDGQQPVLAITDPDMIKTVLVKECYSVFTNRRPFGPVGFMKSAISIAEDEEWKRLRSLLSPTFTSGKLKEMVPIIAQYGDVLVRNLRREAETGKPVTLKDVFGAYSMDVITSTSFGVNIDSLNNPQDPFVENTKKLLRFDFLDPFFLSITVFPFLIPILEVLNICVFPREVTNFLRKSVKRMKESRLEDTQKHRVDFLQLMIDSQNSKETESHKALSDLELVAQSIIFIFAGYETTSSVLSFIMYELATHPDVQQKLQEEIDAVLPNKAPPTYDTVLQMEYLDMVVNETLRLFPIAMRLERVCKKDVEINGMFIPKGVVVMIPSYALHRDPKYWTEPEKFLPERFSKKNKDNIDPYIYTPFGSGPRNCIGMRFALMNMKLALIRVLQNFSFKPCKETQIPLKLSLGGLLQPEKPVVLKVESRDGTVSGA
Text: as §2

A short description of data set [1]: mini-Ames reverse mutation assay. The class given is cell-based. Particulars: up to 125 μg/mL.
Text: as §2

The next data set is described as follows: Cytotoxicity HepG2. The class given is cell-based. Particulars: human; HepG2. The method, then: as §1
The next data set deals with MMP-14 (Homo sapiens, UniProt P50281). The experiment in a line: Selectivity against human off-targets: MMP-14. In kind it is biochemical. Particulars: read-out: Inhibition [%] MMP-14. The text has this: (§3) The inhibition of zinc-containing human enzymes is described frequently for LasB inhibitors and poses a serious difficulty in the development of selective compounds. Particularly, the inhibition of matrix metalloproteases (MMPs) should be avoided. To further investigate this issue, three derivatives (the compounds of examples 1, 5 and 8) have been tested for their selectivity against several human off-targets, including six MMPs, ADAM17 (TACE), HDAC-3 and HDAC-8 (Table 4). The selectivity of the compounds is particularly high for MMPs and HDACs, whereas the inhibition of ADAM17 was considerably stronger.

The target of the next data set is CYP2C9 (Homo sapiens, UniProt P11712). Put plainly: CYP inhibition CYP2C9. In kind it is in vitro ADME.
Chain of CYP2C9 (P11712 whole entry): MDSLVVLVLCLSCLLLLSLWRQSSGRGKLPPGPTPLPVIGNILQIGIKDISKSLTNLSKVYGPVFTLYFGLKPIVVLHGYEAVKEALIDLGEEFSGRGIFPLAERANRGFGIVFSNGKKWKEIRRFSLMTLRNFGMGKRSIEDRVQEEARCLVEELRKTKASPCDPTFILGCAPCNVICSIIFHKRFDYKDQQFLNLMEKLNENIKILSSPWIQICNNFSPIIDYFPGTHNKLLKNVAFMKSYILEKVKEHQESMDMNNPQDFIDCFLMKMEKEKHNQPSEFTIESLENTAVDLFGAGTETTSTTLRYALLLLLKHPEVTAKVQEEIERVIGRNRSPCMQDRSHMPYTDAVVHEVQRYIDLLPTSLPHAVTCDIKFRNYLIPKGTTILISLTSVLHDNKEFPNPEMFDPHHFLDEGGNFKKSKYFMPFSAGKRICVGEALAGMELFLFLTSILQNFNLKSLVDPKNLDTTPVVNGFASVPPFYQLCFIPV
Text: as §2

The target of a further data set is hERG potassium channel (Homo sapiens, UniProt Q12809). Put plainly: hERG inhibition. In kind it is biochemical.
Chain of hERG potassium channel (Q12809 whole entry): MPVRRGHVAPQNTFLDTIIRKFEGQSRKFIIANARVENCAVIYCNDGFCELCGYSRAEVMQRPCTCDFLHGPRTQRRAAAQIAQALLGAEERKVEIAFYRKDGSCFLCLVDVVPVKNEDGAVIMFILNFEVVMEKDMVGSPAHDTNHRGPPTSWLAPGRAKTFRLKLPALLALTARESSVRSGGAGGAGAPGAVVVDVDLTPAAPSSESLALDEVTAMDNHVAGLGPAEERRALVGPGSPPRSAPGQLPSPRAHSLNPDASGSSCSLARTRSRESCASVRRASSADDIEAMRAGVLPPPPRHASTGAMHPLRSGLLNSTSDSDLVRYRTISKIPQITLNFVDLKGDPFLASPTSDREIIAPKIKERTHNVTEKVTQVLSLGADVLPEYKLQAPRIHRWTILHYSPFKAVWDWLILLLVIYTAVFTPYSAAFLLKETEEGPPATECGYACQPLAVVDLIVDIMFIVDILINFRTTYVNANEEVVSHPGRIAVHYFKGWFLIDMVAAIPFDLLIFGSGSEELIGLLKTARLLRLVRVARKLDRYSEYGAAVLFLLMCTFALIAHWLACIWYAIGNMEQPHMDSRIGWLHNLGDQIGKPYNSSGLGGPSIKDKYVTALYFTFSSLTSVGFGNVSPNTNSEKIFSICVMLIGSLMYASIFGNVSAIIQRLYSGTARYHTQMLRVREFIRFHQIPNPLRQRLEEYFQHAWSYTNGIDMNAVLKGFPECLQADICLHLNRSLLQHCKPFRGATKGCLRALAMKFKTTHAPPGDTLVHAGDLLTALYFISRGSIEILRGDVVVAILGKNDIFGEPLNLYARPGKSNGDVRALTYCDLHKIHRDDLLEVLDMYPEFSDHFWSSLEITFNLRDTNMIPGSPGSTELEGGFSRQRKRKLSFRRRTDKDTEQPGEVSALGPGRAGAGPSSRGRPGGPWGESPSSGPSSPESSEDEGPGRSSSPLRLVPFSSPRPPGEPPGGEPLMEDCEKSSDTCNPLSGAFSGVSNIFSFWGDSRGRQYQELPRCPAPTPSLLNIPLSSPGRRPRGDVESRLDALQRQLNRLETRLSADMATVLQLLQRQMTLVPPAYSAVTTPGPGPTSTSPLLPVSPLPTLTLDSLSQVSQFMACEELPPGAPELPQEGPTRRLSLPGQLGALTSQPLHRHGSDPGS
Text: as §2

Another data set addresses T1, HDAC-8 (Homo sapiens, UniProt Q9BY41).
T1 sequence (Q9BY41 1-377): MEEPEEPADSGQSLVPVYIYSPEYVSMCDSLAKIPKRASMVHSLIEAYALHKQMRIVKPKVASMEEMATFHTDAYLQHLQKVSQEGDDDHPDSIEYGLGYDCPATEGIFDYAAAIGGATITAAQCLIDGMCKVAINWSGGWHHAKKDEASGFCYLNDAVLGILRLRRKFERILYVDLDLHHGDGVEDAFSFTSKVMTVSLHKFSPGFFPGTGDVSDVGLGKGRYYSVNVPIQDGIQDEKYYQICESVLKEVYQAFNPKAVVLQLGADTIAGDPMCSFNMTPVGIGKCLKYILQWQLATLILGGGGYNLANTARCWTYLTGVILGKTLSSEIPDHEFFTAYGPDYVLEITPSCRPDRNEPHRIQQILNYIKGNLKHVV
The experiment in a line: Selectivity against human off-targets: HDAC-8. In kind it is biochemical. Particulars: read-out: IC50 HDAC-8.
Text: as §3

SMILES strings stand for the structures.

Broadly, the IC50 is the concentration at which inhibition is half-maximal. One may read the inhibition as how much of the control response was suppressed. In general, melting point refers to the temperature, or range, at which the solid turns liquid.

In turn, `Cc1ccc(NC(=O)C(S)CC(C)C)cc1` (centres unmarked) [Example 2, 2-Mercapto-4-methyl-N-(p-tolyl)pentanamide] came in with a melting point of 90 °C. Besides, in the data set “Cytotoxicity HEK293”, the IC50 was above 50 µM. Moreover, at CYP2C19, it took 1 µM to reach half-maximal inhibition (IC50). Besides, at LasB, the IC50 is 0.4 ± 0.13 µM. Moreover, it took 15 µM to reach half-maximal inhibition at CYP3A4 (IC50). For the same compound, in data set [1], the Mini-Ames genotoxicity entry was “no genotoxicity and No”. In addition, in “Cytotoxicity HepG2”, the IC50 is above 100 µM. Moreover, the inhibition at 100 µM on MMP-14 is below 10%. The compound further returned an IC50 against CYP2C9 above 25 µM. For the same compound, the IC50 at hERG potassium channel was above 10 µM. Moreover, on HDAC-8, the IC50 is above 100 µM.
